Activity calls are given as the source filed them. No cut-off for these calls is given here.
Assays:
KB = experiment: Cytotoxicity against human KB cells; format: functional, cell-based
P388 = experiment: In vivo antitumor activity against mouse P388 cells at 1 mg/kg relative to control; format: functional

Q: Which Activity (KB) does the source give for `CC[C@]12C[C@H]3CN(CCc4c([nH]c5ccccc45)[C@@](C(=O)OC)(c4cc5c(cc4OC)N(C)[C@H]4[C@@](O)(C(=O)OC)[C@H](OC(C)=O)[C@]6(CC)C=CCN7CC[C@]54[C@@H]76)[C@@H]3O1)C2` [CATHARANTHAMINE] here?
A: Active

Q: And the T/C (P388)?
A: 176%
